{
  "source": "PubChem BioAssay AID2060896",
  "about": "(Molecular Pharmacology Branch, DTP, NCI, 2025)",
  "system": "941728-121-R-J1-PDC complex spheroid viability",
  "assay": "Anticancer human tumor 941728-121-R-J1-PDC patient-derived lung adenocarcinoma cell line growth inhibition [RAS]",
  "conditions": "for IC50: curve of first compound; for viability, T/C: stronger effect = lower value",
  "in_short": "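Agents were tested in combination matrices in half-log decrements from a top concentration at or near clinical Cmax (10 microM if undetermined). Targets were multi-cell spheroids of tumour lines plus HUVEC and MSC stromal cells.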",
  "key": {"[1]": {"conditions": "second compound 0.00316 µM, first compound 0.0316 µM"}, "[2]": {"conditions": "second compound 0.00316 µM, first compound 0.1 µM"}, "[3]": {"conditions": "second compound 0.01 µM, first compound 0.0316 µM"}, "[4]": {"conditions": "second compound 0.01 µM, first compound 0.1 µM"}, "[5]": {"conditions": "second compound 0.0316 µM, first compound 0.0316 µM"}, "[6]": {"conditions": "second compound 0.0316 µM, first compound 0.1 µM"}, "[7]": {"conditions": "second compound 0.1 µM, first compound 0.0316 µM"}, "[8]": {"conditions": "second compound 0.1 µM, first compound 0.1 µM"}, "[9]": {"conditions": "second compound 0.316 µM, first compound 0.0316 µM"}, "[10]": {"conditions": "second compound 0.316 µM, first compound 0.1 µM"}, "[11]": {"conditions": "second compound 1 µM, first compound 0.0316 µM"}, "[12]": {"conditions": "second compound 1 µM, first compound 0.1 µM"}},
  "data": [
    {"molecule": "CC(C)NCC(C(=O)N1CCN(c2ncnc3c2C(C)CC3O)CC1)c1ccc(Cl)cc1", "note": "(centres undefined) + C=CC(=O)N1CCN(c2nc(OCC3CCCN3C)nc3c(F)c(-c4nc(N)cc(C)c4C(F)(F)F)c(Cl)cc23)C(C)C1;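 also: spheroids exposed to compounds for 7 days before readout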;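 as to viability, T/C: 100% = DMSO vehicle control viability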", "values": [
      {"measurement": "IC50", "setting": "second compound 0.00316 µM", "result": "< 31.6", "unit": "nM"},
      {"measurement": "IC50", "setting": "second compound 0.01 µM", "result": "< 31.6", "unit": "nM"},
      {"measurement": "IC50", "setting": "second compound 0.0316 µM", "result": "< 31.6", "unit": "nM"},
      {"measurement": "IC50", "setting": "second compound 0.1 µM", "result": "< 31.6", "unit": "nM"},
      {"measurement": "IC50", "setting": "second compound 0.316 µM", "result": "< 31.6", "unit": "nM"},
      {"measurement": "IC50", "setting": "second compound 1 µM", "result": "< 31.6", "unit": "nM"},
      {"measurement": "viability, T/C", "setting": "[1]", "result": 19.3, "unit": "%"},
      {"measurement": "viability, T/C", "setting": "[2]", "result": 17.8, "unit": "%"},
      {"measurement": "viability, T/C", "setting": "second compound 0.00316 µM, first compound 0.316 µM", "result": 16.5, "unit": "%"},
      {"measurement": "viability, T/C", "setting": "second compound 0.00316 µM, first compound 1 µM", "result": 22.4, "unit": "%"},
      {"measurement": "viability, T/C", "setting": "second compound 0.00316 µM, first compound 3.16 µM", "result": 12.7, "unit": "%"},
      {"measurement": "viability, T/C", "setting": "second compound 0.00316 µM, first compound 10 µM", "result": 8.85, "unit": "%"},
      {"measurement": "viability, T/C", "setting": "[3]", "result": 18, "unit": "%"},
      {"measurement": "viability, T/C", "setting": "[4]", "result": 21.5, "unit": "%"},
      {"measurement": "viability, T/C", "setting": "second compound 0.01 µM, first compound 0.316 µM", "result": 18.3, "unit": "%"},
      {"measurement": "viability, T/C", "setting": "second compound 0.01 µM, first compound 1 µM", "result": 14.3, "unit": "%"},
      {"measurement": "viability, T/C", "setting": "second compound 0.01 µM, first compound 3.16 µM", "result": 13.1, "unit": "%"},
      {"measurement": "viability, T/C", "setting": "second compound 0.01 µM, first compound 10 µM", "result": 7.71, "unit": "%"},
      {"measurement": "viability, T/C", "setting": "[5]", "result": 26.6, "unit": "%"},
      {"measurement": "viability, T/C", "setting": "[6]", "result": 17.3, "unit": "%"},
      {"measurement": "viability, T/C", "setting": "second compound 0.0316 µM, first compound 0.316 µM", "result": 16.8, "unit": "%"},
      {"measurement": "viability, T/C", "setting": "second compound 0.0316 µM, first compound 1 µM", "result": 14.7, "unit": "%"},
      {"measurement": "viability, T/C", "setting": "second compound 0.0316 µM, first compound 3.16 µM", "result": 10.8, "unit": "%"},
      {"measurement": "viability, T/C", "setting": "second compound 0.0316 µM, first compound 10 µM", "result": 11.1, "unit": "%"},
      {"measurement": "viability, T/C", "setting": "[7]", "result": 19.6, "unit": "%"},
      {"measurement": "viability, T/C", "setting": "[8]", "result": 17.1, "unit": "%"},
      {"measurement": "viability, T/C", "setting": "second compound 0.1 µM, first compound 0.316 µM", "result": 17.9, "unit": "%"},
      {"measurement": "viability, T/C", "setting": "second compound 0.1 µM, first compound 1 µM", "result": 15, "unit": "%"},
      {"measurement": "viability, T/C", "setting": "second compound 0.1 µM, first compound 3.16 µM", "result": 10.6, "unit": "%"},
      {"measurement": "viability, T/C", "setting": "second compound 0.1 µM, first compound 10 µM", "result": 6.28, "unit": "%"},
      {"measurement": "viability, T/C", "setting": "[9]", "result": 19.6, "unit": "%"},
      {"measurement": "viability, T/C", "setting": "[10]", "result": 16.8, "unit": "%"},
      {"measurement": "viability, T/C", "setting": "second compound 0.316 µM, first compound 0.316 µM", "result": 15.3, "unit": "%"},
      {"measurement": "viability, T/C", "setting": "second compound 0.316 µM, first compound 1 µM", "result": 13.8, "unit": "%"},
      {"measurement": "viability, T/C", "setting": "second compound 0.316 µM, first compound 3.16 µM", "result": 13.5, "unit": "%"},
      {"measurement": "viability, T/C", "setting": "second compound 0.316 µM, first compound 10 µM", "result": 8.85, "unit": "%"},
      {"measurement": "viability, T/C", "setting": "[11]", "result": 17.9, "unit": "%"},
      {"measurement": "viability, T/C", "setting": "[12]", "result": 18.7, "unit": "%"},
      {"measurement": "viability, T/C", "setting": "second compound 1 µM, first compound 0.316 µM", "result": 16.8, "unit": "%"},
      {"measurement": "viability, T/C", "setting": "second compound 1 µM, first compound 1 µM", "result": 12, "unit": "%"},
      {"measurement": "viability, T/C", "setting": "second compound 1 µM, first compound 3.16 µM", "result": 12.3, "unit": "%"},
      {"measurement": "viability, T/C", "setting": "second compound 1 µM, first compound 10 µM", "result": 8.38, "unit": "%"}
    ]},
    {"molecule": "CC(C)n1nc(-c2ccc3oc(N)nc3c2)c2c(N)ncnc21", "note": "+ C=CC(=O)N1CCN(c2nc(OCC3CCCN3C)nc3c(F)c(-c4nc(N)cc(C)c4C(F)(F)F)c(Cl)cc23)C(C)C1", "values": [
      {"measurement": "IC50", "setting": "second compound 0.00316 µM", "result": "< 0.316", "unit": "nM"},
      {"measurement": "IC50", "setting": "second compound 0.01 µM", "result": "< 0.316", "unit": "nM"},
      {"measurement": "IC50", "setting": "second compound 0.0316 µM", "result": "< 0.316", "unit": "nM"},
      {"measurement": "IC50", "setting": "second compound 0.1 µM", "result": "< 0.316", "unit": "nM"},
      {"measurement": "IC50", "setting": "second compound 0.316 µM", "result": "< 0.316", "unit": "nM"},
      {"measurement": "IC50", "setting": "second compound 1 µM", "result": "< 0.316", "unit": "nM"},
      {"measurement": "viability, T/C", "setting": "second compound 0.00316 µM, first compound 0.000316 µM", "result": 19.5, "unit": "%"},
      {"measurement": "viability, T/C", "setting": "second compound 0.00316 µM, first compound 0.001 µM", "result": 21.4, "unit": "%"},
      {"measurement": "viability, T/C", "setting": "second compound 0.00316 µM, first compound 0.00316 µM", "result": 19.4, "unit": "%"},
      {"measurement": "viability, T/C", "setting": "second compound 0.00316 µM, first compound 0.01 µM", "result": 14.4, "unit": "%"},
      {"measurement": "viability, T/C", "setting": "[1]", "result": 11.6, "unit": "%"},
      {"measurement": "viability, T/C", "setting": "[2]", "result": 9.02, "unit": "%"},
      {"measurement": "viability, T/C", "setting": "second compound 0.01 µM, first compound 0.000316 µM", "result": 19.6, "unit": "%"},
      {"measurement": "viability, T/C", "setting": "second compound 0.01 µM, first compound 0.001 µM", "result": 21.8, "unit": "%"},
      {"measurement": "viability, T/C", "setting": "second compound 0.01 µM, first compound 0.00316 µM", "result": 17.9, "unit": "%"},
      {"measurement": "viability, T/C", "setting": "second compound 0.01 µM, first compound 0.01 µM", "result": 14.4, "unit": "%"},
      {"measurement": "viability, T/C", "setting": "[3]", "result": 10.7, "unit": "%"},
      {"measurement": "viability, T/C", "setting": "[4]", "result": 6.76, "unit": "%"},
      {"measurement": "viability, T/C", "setting": "second compound 0.0316 µM, first compound 0.000316 µM", "result": 22.7, "unit": "%"},
      {"measurement": "viability, T/C", "setting": "second compound 0.0316 µM, first compound 0.001 µM", "result": 17.5, "unit": "%"},
      {"measurement": "viability, T/C", "setting": "second compound 0.0316 µM, first compound 0.00316 µM", "result": 19.2, "unit": "%"},
      {"measurement": "viability, T/C", "setting": "second compound 0.0316 µM, first compound 0.01 µM", "result": 14.4, "unit": "%"},
      {"measurement": "viability, T/C", "setting": "[5]", "result": 10.2, "unit": "%"},
      {"measurement": "viability, T/C", "setting": "[6]", "result": 7.17, "unit": "%"},
      {"measurement": "viability, T/C", "setting": "second compound 0.1 µM, first compound 0.000316 µM", "result": 22.1, "unit": "%"},
      {"measurement": "viability, T/C", "setting": "second compound 0.1 µM, first compound 0.001 µM", "result": 18.2, "unit": "%"},
      {"measurement": "viability, T/C", "setting": "second compound 0.1 µM, first compound 0.00316 µM", "result": 19.4, "unit": "%"},
      {"measurement": "viability, T/C", "setting": "second compound 0.1 µM, first compound 0.01 µM", "result": 11.9, "unit": "%"},
      {"measurement": "viability, T/C", "setting": "[7]", "result": 10.1, "unit": "%"},
      {"measurement": "viability, T/C", "setting": "[8]", "result": 7.39, "unit": "%"},
      {"measurement": "viability, T/C", "setting": "second compound 0.316 µM, first compound 0.000316 µM", "result": 19.4, "unit": "%"},
      {"measurement": "viability, T/C", "setting": "second compound 0.316 µM, first compound 0.001 µM", "result": 18, "unit": "%"},
      {"measurement": "viability, T/C", "setting": "second compound 0.316 µM, first compound 0.00316 µM", "result": 17.8, "unit": "%"},
      {"measurement": "viability, T/C", "setting": "second compound 0.316 µM, first compound 0.01 µM", "result": 14.7, "unit": "%"},
      {"measurement": "viability, T/C", "setting": "[9]", "result": 9.18, "unit": "%"},
      {"measurement": "viability, T/C", "setting": "[10]", "result": 8.16, "unit": "%"},
      {"measurement": "viability, T/C", "setting": "second compound 1 µM, first compound 0.000316 µM", "result": 19.5, "unit": "%"},
      {"measurement": "viability, T/C", "setting": "second compound 1 µM, first compound 0.001 µM", "result": 22.9, "unit": "%"},
      {"measurement": "viability, T/C", "setting": "second compound 1 µM, first compound 0.00316 µM", "result": 16.6, "unit": "%"},
      {"measurement": "viability, T/C", "setting": "second compound 1 µM, first compound 0.01 µM", "result": 13.4, "unit": "%"},
      {"measurement": "viability, T/C", "setting": "[11]", "result": 11.6, "unit": "%"},
      {"measurement": "viability, T/C", "setting": "[12]", "result": 8.02, "unit": "%"}
    ]}
  ]
}
